We go through 37 compounds from patent US9340577B2, “HLA binding motifs and peptides and their uses” (priority 1992, dated 2016).

Assay in all cases: biochemical
What all share (format): binding

In assay [1] the target is A*6802 (Homo sapiens, UniProt P04439, A269V/D140Y/D185E/E176V/E277Q/E87N/F33Y/G231S/I121R/I166T/I218V/L180W/L300P/L318F/N151K/P208A/P217A/Q86R/R138H/R169H/S129P/T345S/V36M).
Assay [2] addresses A*0206 (Homo sapiens, UniProt P04439, D140Y/D185E/D98H/E176V/E277Q/F33Y/G131W/G231S/I119V/I121R/I166T/I218V/L300P/L318F/N151K/N90K/P208A/P217A/Q86G/Q94H/R138H/R169H/T345S).
Assay [3] has as its target A*0203 (Homo sapiens, UniProt P04439, A173T/D140Y/D185E/D98H/E277Q/G131W/G231S/I119V/I121R/I166T/I218V/L180W/L300P/L318F/N151K/N90K/P208A/P217A/Q86G/Q94H/R138H/R169H/T345S).
The target of assay [4] is A*0202 (Homo sapiens, UniProt P04439, D140Y/D185E/D98H/E176V/E277Q/G131W/G231S/I119L/I121R/I166T/I218V/L180W/L300P/L318F/N151K/N90K/P208A/P217A/Q67R/Q86G/Q94H/R138H/R169H/T345S).
Assay [5] addresses HLA-A*0201 (HLA-A2.1) (Homo sapiens, UniProt P04439, D140Y/D185E/D98H/E176V/E277Q/G131W/G231S/I119V/I121R/I166T/I218V/L300P/L318F/N151K/N90K/P208A/P217A/Q86G/Q94H/R138H/R169H/T345S).

No end group written: not given here.

Consider RILQQLLLI [Peptide 1525.20], for which the IC50 was above 20000 nM in assay [1]; 82 nM in assay [2]; 1000 nM in assay [3]; 4680 nM in assay [4]; 199 nM in assay [5].
In the same order, the values of IIQNDTGFYV [Peptide 9013.0146] are 2600 nM, 201 nM, 548 nM, 25 nM and 155 nM.
The corresponding values for RILQQMLFI [Peptide 1525.22] are above 20000 nM, 108 nM, 241 nM, 709 nM and 187 nM.
With LQGSVICFV [Peptide 1578.06], the IC50 was determined as 3560 nM in assay [1]; 52 nM in assay [2]; 21 nM in assay [3]; 33 nM in assay [4]; 23 nM in assay [5].
The corresponding values for ALAEAMSQA [Peptide 1539.04] are 3020 nM, 17 nM, 20 nM, 1.9 nM and 15 nM.
In the same order, the values of QLSNGNRTL [Peptide 9013.0050] are 8650 nM, above 20000 nM, 43 nM, 39 nM and 16100 nM.
With QQIEFVSFL [Peptide 1578.16], the IC50 in assay [1] came to 44 nM; in assay [2] it was 49 nM; in assay [3], 14 nM; in assay [4], 3.3 nM; in assay [5], 19 nM.
The corresponding values for GMIDDVTPI [Peptide 1578.24] are above 20000 nM, 24 nM, 0.63 nM, 0.2 nM and 25 nM.
In the same order, the values of QLSTQELFI [Peptide 9013.0057] are 8170 nM, 7470 nM, 27 nM, 4.5 nM and 65 nM.
The corresponding values for VLAEAMAAA [Peptide 1516.12] are 639 nM, 16 nM, 3.2 nM, 1.9 nM and 17 nM.
GLFQQSTQEL [Peptide 9013.0176]: the 50% inhibitory concentration (IC50) in assay [1] is above 20000 nM; in assay [2] it was above 20000 nM; in assay [3] it was 48 nM; in assay [4], 6.2 nM; in assay [5] it was 1360 nM.
For SLNRSDPVT [Peptide 9013.0099], the IC50 in assay [1] is above 20000 nM; in assay [2], above 20000 nM; in assay [3] it was 2490 nM; in assay [4], 121 nM; in assay [5] it was above 20000 nM.
Turning to MTRNPPVPV [Peptide 1539.02], the IC50 was 117 nM in assay [1]; above 20000 nM in assay [2]; 35 nM in assay [3]; 1140 nM in assay [4]; 9170 nM in assay [5].
The corresponding values for GLQQATPGPA [Peptide 9013.0143] are above 20000 nM, above 20000 nM, 3.9 nM, 220 nM and 4870 nM.
For TLELFIPNITV [Peptide 9013.0299], the IC50 in assay [1] stood at 1040 nM; in assay [2], 2330 nM; in assay [3], 15800 nM; in assay [4], 502 nM; in assay [5], 161 nM.
The corresponding values for LLTFWNPPTV [Peptide 9013.0120] are 607 nM, 1000 nM, 3.2 nM, 10 nM and 170 nM.
The corresponding values for YLWWVNNQSV [Peptide 9013.0197] are 17 nM, 65 nM, 4.2 nM, 1.2 nM and 8.9 nM.
In the case of YLYYRPGVNL [Peptide 9013.0209], the half-inhibitory concentration (IC50) in assay [1] came out at 953 nM; in assay [2] it was 940 nM; in assay [3], 2.8 nM; in assay [4] it was 2.2 nM; in assay [5], 54 nM.
Take FQFQNPFPL [Peptide 1578.40]: the IC50 in assay [1] was found to be 3160 nM; in assay [2] it was 6.3 nM; in assay [3], 3.5 nM; in assay [4] it was 0.75 nM; in assay [5] it was 8.4 nM.
In the case of YTCGIQNSV [Peptide 9013.0096], the IC50 in assay [1] worked out at 140 nM; in assay [2], 342 nM; in assay [3], 310 nM; in assay [4], 71 nM; in assay [5], 1970 nM.
In the same order, the values of RILQRLLFV [Peptide 1525.27] are above 20000 nM, 73 nM, 11 nM, 1590 nM and 64 nM.
The corresponding values for FQGSVISFV [Peptide 1578.38] are 564 nM, 13 nM, 1.8 nM, 1.8 nM and 15 nM.
For the compound `CSCC[C@H](NC(=O)[C@@H](N)CCCNC(=N)N)C(=O)N1CCC[C@H]1C(=O)N[C@@H](CCC(=O)O)C(=O)N[C@@H](C)C(=O)N[C@@H](C)C(=O)N1CCC[C@H]1C(=O)N1CCC[C@H]1C(=O)N[C@H](C(=O)N[C@H](C(=O)O)C(C)C)C(C)C` [Peptide 1317.29], the IC50 in assay [1] was above 20000 nM; in assay [2], 259 nM; in assay [3] it was 6.3 nM; in assay [4] it was 62 nM; in assay [5], 55 nM.
The corresponding values for NLAEGKEVL [Peptide 9013.0016] are above 20000 nM, above 20000 nM, 293 nM, 14 nM and 3840 nM.
In the same order, the values of RLLQQLLFI [Peptide 1525.10] are above 20000 nM, 19 nM, 46 nM, 70 nM and 27 nM.
For the compound AVAFTCEPEV [Peptide 9013.0155], the 50% inhibitory concentration (IC50) worked out at 13400 nM in assay [1]; 199 nM in assay [2]; 54 nM in assay [3]; 233 nM in assay [4]; 7860 nM in assay [5].
As to MAFEYALLA [Peptide 1578.09], the IC50 in assay [1] came out at 29 nM; in assay [2], 100 nM; in assay [3], 74 nM; in assay [4], 52 nM; in assay [5], 226 nM.
In the same order, the values of SLYTHLQCL [Peptide 1578.20] are 8470 nM, 540 nM, 11 nM, 2.6 nM and 224 nM.
In the same order, the values of GLSAGATVGV [Peptide 9013.0250] are 1150 nM, 1100 nM, 2.8 nM, 2.9 nM and 97 nM.
The corresponding values for ALYWYRTGI [Peptide 86.0181] are 4850 nM, 4640 nM, 64 nM, 24 nM and 555 nM.
With QQSTQELFV [Peptide 9013.0056], the IC50 in assay [1] is above 20000 nM; in assay [2], 593 nM; in assay [3], 409 nM; in assay [4] it was 163 nM; in assay [5], 1590 nM.
For the compound VIKSDLVNEEV [Peptide 9013.0278], the IC50 was above 20000 nM in assay [1]; above 20000 nM in assay [2]; 1730 nM in assay [3]; 57 nM in assay [4]; above 20000 nM in assay [5].
In the case of TLQATPGPA [Peptide 9013.0028], the IC50 was above 20000 nM in assay [1]; above 20000 nM in assay [2]; 29 nM in assay [3]; 1980 nM in assay [4]; 19400 nM in assay [5].
For the compound GTQQATPGPV [Peptide 9013.0142], the IC50 in assay [1] is above 20000 nM; in assay [2], above 20000 nM; in assay [3], 36 nM; in assay [4], above 20000 nM; in assay [5] it was above 20000 nM.
Consider RILQQLLFV [Peptide 1525.09], for which the IC50 in assay [1] was found to be 17900 nM; in assay [2], 18 nM; in assay [3], 60 nM; in assay [4], 489 nM; in assay [5], 28 nM.
As to NLNLSCHAV [Peptide 9013.0054], the IC50 in assay [1] is 2200 nM; in assay [2], 7130 nM; in assay [3] it was 39 nM; in assay [4] it was 15 nM; in assay [5] it was 633 nM.
In the same order, the values of LLLSNDNRTL [Peptide 9013.0205] are above 20000 nM, above 20000 nM, 4180 nM, 303 nM and 8190 nM.

For orientation: IC50 means the point on the concentration scale where inhibition reaches its midpoint.
